Assay results: US20260116865A1, “PHOSPHOR FOR DETECTING FIRE BLIGHT PATHOGEN AND USE THEREOF” (UNIVERSITY-INDUSTRY COOPERATION GROUP OF KYUNG HEE …, priority 2023, published 2026)

Assays:
[1] = Absorption and fluorescence properties of B-1 in aqueous solution; type: physicochemical
Protocol: (§1) To evaluate the absorption and fluorescence properties of the phosphor compound B-1 synthesized in Example 1, the changes in the absorption and fluorescence spectra of B-1 were measured in aqueous solution and in the presence of Erwinia amylovora, the causal pathogen of fire blight in fruit trees, and the results are shown in FIG. 2.
(§2) Specifically, the E. amylovora used in the experiment was cultured overnight at 26° C. in Luria-Bertani (LB) liquid medium. After cultivation, E. amylovora was harvested by centrifugation at 10,000 ref. First, B-1 was added, and its absorption and fluorescence spectra were analyzed in aqueous solution. Then, E. amylovora (4.3×10^8 CFU) was added to the aqueous solution containing B-1, and the changes in the absorption and fluorescence spectra were analyzed. A UV/Vis spectrophotometer (Agilent, USA) was used to analyze the absorbance spectra, and a fluorescence spectrophotometer (SHIMADZU CORP. RF-6000, Japan) was used for fluorescence spectra analysis. For all spectral measurements, a standard quartz cell with a path length of 1 cm (Hellma Analytics, Germany) was used.
(§3) The measurement results are shown in FIG. 2, where the absorption and fluorescence spectra of B-1 (10 μM) in aqueous solution are represented by a dashed line, and those in the presence of E. amylovora are represented by a solid line.

Erwinia amylovora = assay: Absorption and fluorescence change of B-1 in the presence of E. amylovora; type: cell-based; settings: B-1 10 μM, E. amylovora 4.3×10^8 CFU
Protocol: as §1, §2, §3

E. amylovora [2] = assay: Fluorescence response of B-1 according to concentration of E. amylovora; type: cell-based, Erwinia amylovora; settings: B-1 10 μM, E. amylovora 2×10^6 to 4×10^8 CFU/mL in DI H2O, excitation 550 nm
Protocol: Specifically, to determine the concentration of E. amylovora obtained as described in Example 2, absorbance at 600 nm was measured (OD600 0.1=1×10^8 cells). E. amylovora was then diluted in DI H2O to concentrations ranging from 2×10^6 to 4×10^8 CFU/mL, and each dilution was reacted with 10 μM of B-1. Fluorescence intensity at 686 nm was recorded after excitation at 550 nm, and plotted on a graph.

E. amylovora [3] = assay: Limit of detection of B-1 for E. amylovora; type: cell-based, Erwinia amylovora; settings: B-1 5 μM in DI H2O, emission 686 nm, excitation 551 nm, serially diluted E. amylovora
Protocol: E. amylovora was serially diluted and reacted with the phosphor compound B-1 synthesized in Example 1 to evaluate its minimum detection capability, and the results are shown in FIG. 4.
Specifically, quantified E. amylovora, as prepared in Example 3, was reacted with 5 μM of B-1 in DI H2O. Fluorescence intensity was then measured at 686 nm with an excitation wavelength of 551 nm, and the results were plotted on a graph.

E. amylovora [4] = assay: Time-dependent detection capability of B-1 for E. amylovora; type: cell-based, Erwinia amylovora; settings: B-1 10 μM, E. amylovora 10^8 CFU/mL in DI H2O, 686 nm, excitation 550 nm, monitored up to 40 minutes
Protocol: Specifically, 10 μM of B-1 was reacted with E. amylovora at a concentration of 10^8 CFU/mL, quantified as described in Example 3, in DI H2O. Fluorescence changes were monitored at 686 nm with 550 nm excitation for up to 40 minutes.

E. amylovora [5] = assay: Staining ability for E. amylovora, confocal laser scanning microscopy; type: cell-based, Erwinia amylovora; settings: B-1 30 μM with DAPI 300 nM in PBS, 1 hour
Protocol: Specifically, E. amylovora obtained as described in Example 2 was stained by reacting with 30 μM of B-1 in phosphate-buffered saline (PBS) for 1 hour. To visualize […] E. amylovora, a counterstain with 300 nM of 4′,6-diamidino-2-phenylindole (DAPI) was applied simultaneously. The stained E. amylovora was then washed three times with PBS to remove residual B-1 and DAPI, followed by heat fixation and mounting on a slide glass for imaging using a confocal laser scanning microscope (Carl Zeiss, Germany). During confocal microscopy, differential interference contrast (DIC) images were also captured. The wavelengths used for imaging were as follows: [DAPI] excitation wavelength: 405 nm, emission wavelength: 410-530 nm, [B-1] excitation wavelength: 561 nm, emission wavelength: 600-700 nm.

E. amylovora [6] = assay: Detection of E. amylovora on plant surfaces (spraying method), immature apples and apple blossoms; design: species or system Erwinia amylovora; settings: 100 μM B-1 sprayed twice, 365 nm flashlight
Protocol: To evaluate whether E. amylovora present on actual plant surfaces could be detected using the phosphor compound B-1 synthesized in Example 1, a spraying-based detection was performed by applying B-1 to tissues (organs: fruits and blossoms) of a Fuji apple tree, and the procedure and results are shown in FIG. 7.
Specifically, to simulate plants infected with fire blight in fruit trees, E. amylovora quantified as described in Example 3 at concentrations of 10^2 to 10^8 CFU/mL was applied to immature apples (fruits) and apple blossoms using a brush, as shown in FIG. 7a. To allow E. amylovora to adhere to the plant surface, the samples were air-dried for 10 minutes. For detection, a 100 μM solution of B-1 diluted in […] was sprayed twice, and 10 minutes later, fluorescence changes were observed under a 365 nm flashlight.

E. amylovora [7] = assay: Detection of E. amylovora on apple tree tissues (spray and swab methods); design: species or system Erwinia amylovora; settings: tissue incubated with E. amylovora 10^8 CFU/mL
Protocol: Detection of E. amylovora on each plant tissue was then attempted by either spraying with a 100 μM solution of B-1 or swabbing with a cotton swab soaked in B-1 solution. Fluorescence changes were observed under a 365 nm flashlight.

E. amylovora [8] = assay: Detection of E. amylovora on agricultural tool surfaces (spraying); design: species or system Erwinia amylovora; settings: 100 μM B-1 sprayed twice, 365 nm flashlight
Text: To evaluate whether the phosphor compound B-1 synthesized in Example 1 could detect E. amylovora present on objects, a spraying-based detection method was employed. As the test object, farming tools, which are known to be one of the causes of cross-contamination from infected plants in orchards, were used.
Specifically, to simulate farming tools exposed to E. amylovora, pruning shears and a trowel were either used to cut fire blight-infected plants directly or rubbed in soil contaminated with E. amylovora, as shown in FIG. 9a. Detection of E. amylovora was carried out by spraying 100 μM of B-1 solution twice onto the tool surfaces, and fluorescence images were captured under a 365 nm flashlight.

CN(C)c1ccc2cc3cc(C(=C(C#N)C#N)c4ccccc4)oc3cc2c1 [Compound B-1]
maximum absorption ([1]; B-1 10 μM in aqueous solution): 550 nm | fluorescence in aqueous solution ([1]; B-1 10 μM, aqueous solution, excitation 550 nm): little to no fluorescence | change of absorption spectrum upon addition of E. amylovora (Erwinia amylovora): slight overall increase | wavelength of highest fluorescence increase (Erwinia amylovora; excitation 550 nm): 686 nm | fluorescence change upon addition of E. amylovora (Erwinia amylovora; excitation 550 nm, compared to aqueous condition alone): significant enhancement | fluorescence intensity at 686 nm versus E. amylovora concentration (E. amylovora [2]): increased in proportion to the concentration of E. amylovora | lowest detectable concentration of E. amylovora (E. amylovora [3]): 10^2 CFU/mL | time to rapid fluorescence increase (E. amylovora [4]): ≤ 10 min | staining of E. amylovora (confocal fluorescence) (E. amylovora [5]): capable of staining live E. amylovora and produces strong red fluorescence | lowest detectable level of E. amylovora on actual plant surfaces (E. amylovora [6]; ImageJ quantification): 10^2 CFU/mL | red fluorescence on immature apples and apple blossoms (E. amylovora [6]; E. amylovora 10^2 to 10^8 CFU/mL brushed on, 10 minutes): red fluorescence was observed for all concentrations | fluorescence on infected apple twigs, spraying (E. amylovora [7]; 100 μM B-1 sprayed, 365 nm flashlight): red fluorescence was observed | fluorescence of B-1-soaked swab rubbed onto infected apple blossoms and leaves (E. amylovora [7]; cotton swab soaked with B-1, 365 nm flashlight): red fluorescence was emitted from the swab | fluorescence of contaminated areas of pruning shears and trowel (E. amylovora [8]): emitted red fluorescence

N=C(N)c1ccc(-c2cc3ccc(C(=N)N)cc3[nH]2)cc1 [DAPI, 4′,6-diamidino-2-phenylindole, reference compound]
staining of E. amylovora (confocal fluorescence) (E. amylovora [5]): fluorescence signals were observed
